Laboratory results from paper PMC7096397, “Improving the drug-likeness of inspiring natural products - evaluation of the antiparasitic activity against Trypanosoma cruzi through semi-synthetic and simplified analogues of licarin A” (Scientific Reports, 2020).
“Also recorded” adds a separate entry of the source. Where two headings read alike, the source gives them in different places.

Assays:
[1] = test system: T. cruzi trypomastigotes; test: ATP generation (luciferin/luciferase); assay type: cell-based, Trypanosoma cruzi; settings: at IC50, 2 h of incubation
Experimental: Untreated parasites and treated with the mitochondrial uncoupler CCCP (carbonyl cyanide m-chlorophenylhydrazone - Sigma) at 100 µM, were used as positive and negative controls, respectively. […] Luminescence intensity was measured using a luminometer (FilterMax F5 Multi-Mode, Molecular Devices) and the amount of ATP was calculated from an ATP standard curve.

[2] = test system: T. cruzi trypomastigotes; test: Reactive oxygen species (ROS) generation, H2DCFDA probe; assay type: cell-based, Trypanosoma cruzi; settings: for ROS generation: at IC50, 1 h of treatment; for ROS levels: at IC50, 2 h of treatment
Experimental: After, H2DCFDA probe (Molecular Probes) was added (5 µM) and incubated by 15 min[44]. The fluorescence intensity was measure using a fluorimetric microplate reader (FilterMax F5 Multi-Mode, Molecular Devices) with excitation and emission wavelengths of 485 and 520 nm, respectively. Azide (10 mM) was used as positive control and untreated parasites were used as negative control.

[3] = test system: T. cruzi trypomastigotes; test: Mitochondrial membrane potential, JC-1 flow cytometry; assay type: cell-based, Trypanosoma cruzi; settings: at IC50, 2 h
Experimental: The ΔΨm were analyzed by flow cytometry (Attune NxT flow cytometer - ThermoFisher) with the probe 5,5′,6,6′-tetrachloro-1,1′,3,3′-tetraethylbenzimidazole carbocyanide iodide (JC-1, ThermoFisher). The ratio between red/green fluorescence intensities (BL-2/BL-1; 590 nm/530 nm) were calculated[45],[46]. […] The parasites were incubated in the dark for 10 min at 37 °C and washed in HBSS + Glu to eliminate the non-internalized dye. As internal controls of the assay were used: (i) non-treated cells and (ii) trypomastigotes treated with 100 μM CCCP.

[4] = PAMPA-BBB model; assay type: in vitro ADME
Experimental: The methodology herein applied was similar to that described in the previous section, however with the purpose of assessing the permeability of the compounds through the blood brain barrier (BBB). Thus, stock solutions (10 mM) of each test compound were prepared in DMSO and diluted with phosphate buffered saline (PBS) at pH 7.4. The final concentration of donor solutions was 300 μM and DMSO of 5%. Artificial membrane lipid solutions were prepared daily by dissolving, in n-dodecane, the porcine brain lipid extracted as described[40] at the final concentration of 2% (m/v). PAMPA procedure was similar to that described in the previous section although, in PAMPA-BBB, the donor and acceptor solutions were prepared using phosphate buffer saline (PBS) at pH 7.4 and the Papp was obtained through the equation previously reported.

[5] = test system: T. cruzi intracellular amastigotes; test: Anti-amastigote assay in infected peritoneal macrophages (infection index); assay type: cell-based, Trypanosoma cruzi; settings: Trypanosoma cruzi, Peritoneal macrophage, in Mus musculus, 48 h, read-out: IC50 Ama
Experimental: (§1) The cells and parasites were kept at 37 °C in a humidified atmosphere containing 5% CO2.
The cells were plated on a 16-well chamber slide – NUNC (Thermo Fisher Scientific) at 1 × 10^5 cells/well and incubated for 24 h at 37 °C in a 5% CO2 humidified incubator. […] Tested compounds were subsequently incubated with infected macrophages for 48 h at 37 °C (5% CO2 humidified incubator) in different nontoxic concentrations. Benznidazole was used as standard drug. At the end of the assay, slides were fixed with MeOH and stained with Giemsa, counted under a light microscope (EVOS M5000, Thermo, USA) and IC50 values were determined by the infection index.
(§2) IC50 and CC50 values were calculated using a sigmoid dose-response curves in Graph–Pad Prism 5.0 software (GraphPad Software - San Diego, CA, USA). For the mechanism of action studies one-way ANOVA (Turkey’s Multiple Comparison test) was used for significance (p < 0.05). The assays were repeated at least twice and the samples were tested in duplicate.

[6] = Cytotoxicity against mammalian cells (MTT); assay type: cell-based, Murine; settings: mouse, NCTC clone L929 cells
Experimental: Rhesus monkey kidney cells (LLC-MK2-ATCC CCL 7) were used for the maintenance of trypomastigotes of T. cruzi (Y strain) using RPMI-1640 medium supplemented with 2% fetal bovine serum (FBS). The cells and parasites were kept at 37 °C in a humidified atmosphere containing 5% CO2. Peritoneal macrophages, used in the experiments of anti-amastigote assay, were obtained by washing the peritoneal cavity of BALB/c mice, with RPMI-1640 medium supplemented with 10% FBS and kept at 37 °C in a 5% CO2 humidified incubator. Murine conjunctive cells (NCTC clone 929, ATCC) and LLC-MK2 were kept in RPMI-1640 supplemented with 10% FBS at the same conditions described above.
NCTC cells-clone L929 (6 × 10^4 cells/well) were seeded and incubated with tested compounds (200–1.56 µM) for 48 h at 37 °C in a 5% CO2 humidified incubator. Cytotoxic concentration (CC50) was determined by MTT assay. Optical density was determined in FilterMax F5 (Molecular Devices) at 570 nm. Selectivity Index (SI) was determined using the following ratio: CC50 against NCTC cells/IC50 against parasites.
as §2

[7] = test system: T. cruzi (Y strain) trypomastigotes; test: Anti-trypomastigote assay (resazurin viability); assay type: cell-based, Trypanosoma cruzi; settings: Trypanosoma cruzi, read-out: IC50 trypo
Experimental: as §1
Benznidazole was used as the standard drug. The optical density was determined in FilterMax F5 (Molecular Devices) at 570 nm[38].
as §2

[8] = PAMPA intestinal model (GIT); assay type: in vitro ADME
Experimental: Intestinal permeability of tested compounds was estimated applying the PAMPA model previously developed and validated. Briefly, stock solutions were prepared in dimethyl sulfoxide (DMSO) at the concentrations of 10 mM and then diluted with Tris buffer to give the final concentration donor solution at 300 µM and 5% DMSO. The assay procedure was initiated by filling each well of the microtiter plate (MultiScreen, catalogue no. MATRNPS50, Millipore Corporation, Bedford, MA, USA) with 300 μL of each donor drug solution. Carefully, and avoiding the pipette tip contact with the filter, the hydrophobic filter (0.45 μm) of each acceptor well of the 96-well microfilter plate (MultiScreen-IP, catalogue no. MAIPNTR10, Millipore Corporation, Bedford, MA, USA) was adsorbed with 6 μL of the artificial lipid solution which was composed of 2% of L-α-phosphatidylcholine from soybean dissolved, by sonication, in n-dodecane. Immediately after this application, 150 μL of Tris buffer containing 5% DMSO was added to the receiving well. The receiving well was mounted on the donor plate, keeping the underside of the membrane in contact with the donor solution. The assembled donor–acceptor plates were incubated under constant stirring (3 g) at 25 °C for approximately 16 h. Subsequently, the quantity of each compound presented at the receptor solution (150 μL) was determined by UV/VIS spectrophotometrically.

[9] = test system: T. cruzi trypomastigotes; test: Plasma membrane permeability, Sytox Green probe; assay type: cell-based, Trypanosoma cruzi; settings: at IC50, up to 120 min, vs untreated parasites
Experimental: The action of compounds 1d, 1e, 3d and 4a in the cell membrane permeability were evaluated in T. cruzi trypomastigotes (2 × 10^6/well) seeded in 96-well black polystyrene microplates. Parasites were washed and incubated in the dark with 1 μM SYTOX Green probe (Molecular Probes) in HANKS’ balanced salts solution (HBSS; Sigma-Aldrich) supplemented with 10 mM D-Glucose (HBSS + Glu) in 96-well black polystyrene microplates[43],[44]. […] The maximum permeabilization was obtained with the addiction of 0.5% Triton X-100. Fluorescence intensities were determined using a fluorimetric microplate reader (FilterMax F5 Multi-Mode Microplate Reader-Molecular Devices) with excitation and emission wavelengths of 485 and 520 nm, respectively. The following internal controls were used in the evaluation: i) the background fluorescence of the compound at the respective wavelengths, ii) the possible interference of DMSO.

[10] = PAMPA intestinal model (GIT); assay type: in vitro ADME; settings: read-out: plasma protein binding percentage
[11] = intracellular amastigotes in BALB/c peritoneal macrophages
[12] = T. cruzi trypomastigotes, 24 h incubation, resazurin
[13] = PAMPA-BBB model, 300 µM donor, PBS pH 7.4, read-out: Papp BBB
[14] = PAMPA intestinal model, 300 µM donor, Tris buffer, 25 °C, 16 h, read-out: Papp GIT

| SMILES | ATP levels [1] | ROS generation [2] | ROS levels [2] | mitochondrial membrane potential [3] | Papp at 16 h, 300 µM ([4]; PAMPA, pH 7.4) [×10⁻⁶ cm/s] | IC50 [5, 11] [µM] | CC50 at 48 h [6] [µM] | IC50 [7, 12] [µM] | Papp at 16 h, 300 µM ([8]; PAMPA) [×10⁻⁶ cm/s] | Sytox Green fluorescence levels (plasma membrane permeability) [9] | Papp at 16 h, 300 µM [4, 13] [×10⁻⁶ cm/s] | IC50 [5] [µM] | IC50 ([7]; 24 h) [µM] | Papp at 16 h, 300 µM [8, 14] [×10⁻⁶ cm/s] | fraction unbound at 16 h, 300 µM [10] |
| --- | --- | --- | --- | --- | --- | --- | --- | --- | --- | --- | --- | --- | --- | --- | --- |
| C=CCc1cc([C@H]2Oc3c(OC)cc(/C=C/C)cc3[C@@H]2C)cc(OC)c1O [1d, 2-allyl-6-methoxy-4-[(2S,3 S)-7-methoxy-3-methyl-5-[(E)-prop-1-enyl]-2,3-dihydrobenzofuran-2-yl]phenol] | increased ATP production | increased the reactive oxygen species (ROS) levels; also recorded: increased ROS generation | drop of the levels | induced hyperpolarization of mitochondrial membrane potential; also recorded: mitochondrial hyperpolarization, but with no statistical significance | 0.28 | > 100 | 45.5 ± 16.7 | 5 ± 0.8 | 0.38 | no changes in the fluorescence levels |  |  |  |  |  |
| C/C=C/c1cc(OC)c2c(c1)[C@H](C)[C@@H](c1cc(OC)c3oc(C)cc3c1)O2 [1e, 7-methoxy-5-[(2 S,3 S)-7-methoxy-3-methyl-5-[(E)-prop-1-enyl]-2,3-dihydrobenzofuran-2-yl]-2-methyl-benzofuran] | no significant alterations in ATP levels | increased the reactive oxygen species (ROS) levels; also recorded: increased ROS generation | drop of the levels | induced hyperpolarization of mitochondrial membrane potential; also recorded: mitochondrial hyperpolarization, but with no statistical significance | 0.23 | > 100 | > 200 | 10.5 ± 5.7 | 0.55 | exception of 1e after 120 min |  |  |  |  |  |
| COc1ccc(C=O)cc1OC [2a, 3,4-dimethoxybenzaldehyde] |  |  |  |  |  |  | > 200 |  |  |  | 7 | > 100 | > 100 | 20.7 | < 0.1 |
| COc1cc(CO)ccc1OC(C)=O [3b, [4-(hydroxymethyl)-2-methoxy-phenyl] acetate] | increased ATP production | increased ROS generation | drop of the levels | mitochondrial hyperpolarization, but with no statistical significance | 3.67 | > 100 | 45.8 ± 14.9 | 5.1 ± 0.7 | 5.07 | no changes in the fluorescence levels |  |  |  |  |  |
| C=CCc1cc(CO)cc(OC)c1O [3d, 2-allyl-4-(hydroxymethyl)-6-methoxy-phenol] |  | increased the reactive oxygen species (ROS) levels |  | induced hyperpolarization of mitochondrial membrane potential | 3.47 | > 100 | > 200 | > 100 | 3.47 |  |  |  |  |  |  |
| C/C=C/c1ccc(OC)c(OC)c1 [4a, 1,2-dimethoxy-4-[(E)-prop-1-enyl]benzene] | increased ATP production | increased the reactive oxygen species (ROS) levels; also recorded: increased ROS generation | drop of the levels |  |  |  | > 200 |  |  | no changes in the fluorescence levels | 1.29 | > 100 | 8.8 ± 2 | 15.9 | < 0.1 |
| C=CCc1ccc(O)c(OC)c1 [compound 5, eugenol] |  |  |  |  |  |  | > 200 |  |  |  | 3.98 | > 100 | > 100 | 14.4 | < 0.1 |
